Reference: patent US20200031811A1, “SUBSTITUTED MONO- AND POLYAZANAPHTHALENE DERIVATIVES AND THEIR USE” (Basilea Pharmaceutica International AG, priority 2015, published 2020)

Key:
[1] = biological target: T1, MNK1 (Homo sapiens, UniProt Q9BUB5); experiment: MNK inhibition assay (Z-Lyte kinase assay, Ser/Thr 7 peptide); format: biochemical; details: for IC50: recombinant GST-MNK1, 3 hours at 31° C.
T1 construct: purchased Life Technologies or Carna Biosciences PV6023 or 02-145; host or cells: baculovirus infected insect cells
Summary of the method: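 Recombinant GST-MNK1 from baculovirus-infected insect cells, Z-Lyte Ser/Thr 7 peptide, enzyme set for ~30% phosphorylation in buffer-only wells; 3 hours at 31° C. Compounds at 50–10000 nM (potent ones down to 0.5 nM), at least duplicate. IC50 from % substrate phosphorylation versus buffer-only wells, fluorescence read-out.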

[2] = tested on: human pancreatic cancer cell line MiaPaCa2 (ATCC CRL-1420); experiment: Cell growth assay (CellTiterGlo, 72 hours); format: cell-based; details: for IC50: MIA PaCa-2, MiaPaCa2 cells, 72 hours, read-out: IC50 MiaPaCa; for inhibition at 50 µM: MIA PaCa-2, at 50 μM, read-out: Inhibition of MiaPaCa growth at indicated concentration
Summary of the method: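 MiaPaCa2 cells (10^3/well) seeded in supplemented DMEM overnight, then exposed in quadruplicate to compound at 100 down to 0.1 μM for 72 h at 37° C. Growth read by CellTiterGlo luminescence, medium-only background subtracted, normalised to untreated cells; IC50 = concentration reducing growth to 50%.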

T1 sequence (Q9BUB5 whole entry): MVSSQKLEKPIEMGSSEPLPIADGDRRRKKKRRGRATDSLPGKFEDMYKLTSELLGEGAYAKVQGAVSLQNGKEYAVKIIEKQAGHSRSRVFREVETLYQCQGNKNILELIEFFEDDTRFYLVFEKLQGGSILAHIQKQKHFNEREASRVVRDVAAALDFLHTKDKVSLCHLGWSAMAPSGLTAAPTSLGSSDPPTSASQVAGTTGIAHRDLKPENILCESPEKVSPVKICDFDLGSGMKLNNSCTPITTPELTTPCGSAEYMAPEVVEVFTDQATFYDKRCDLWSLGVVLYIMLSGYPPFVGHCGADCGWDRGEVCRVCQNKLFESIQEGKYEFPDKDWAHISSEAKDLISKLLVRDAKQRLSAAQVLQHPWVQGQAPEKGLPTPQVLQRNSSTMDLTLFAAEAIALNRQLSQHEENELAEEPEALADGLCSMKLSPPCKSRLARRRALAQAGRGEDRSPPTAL

| Structure (SMILES) | IC50 [1] [µM] | IC50 [2] [µM] | inhibition at 1 µM ([1]; at 1 μM, read-out: Inhibition of MNK1 activity at indicated concentration) [%] | inhibition at 50 µM [2] [%] |
| --- | --- | --- | --- | --- |
| NC1CCN(Cc2ccc3cncc(-c4ccc5ccccc5n4)c3c2)CC1 [Example 176, 1-[[4-(2-Quinolyl)-6-isoquinolyl]methyl]piperidin-4-amine] | 3.7 | 29 | – | – |
| NC1CCN(Cc2ccc3cncc(-c4ccc(CO)cc4)c3c2)CC1 [Example 181] | 0.522 | 22.8 | – | – |
| NC1CCN(Cc2ccc3cncc(-c4cccc(CO)c4)c3c2)CC1 [Example 182] | 1.18 | 38 | – | – |
| NCc1cccc(-c2cncc3ccc(CN4CCC(N)CC4)cc23)c1 [Example 184] | – | 7.89 | 35 | – |
| CC(=O)c1ccc(-c2cncc3ccc(CN4CCC(N)CC4)cc23)cc1 [Example 185] | 0.849 | 22 | – | – |
| CC(=O)c1cccc(-c2cncc3ccc(CN4CCC(N)CC4)cc23)c1 [Example 186] | 1.24 | 24 | – | – |
| c1ccc2oc(-c3cncc4ccc(Cn5ccc6ccncc65)cc34)cc2c1 [Example 191, 4-(Benzofuran-2-yl)-6-(pryrrolo[2,3-c]pyridin-1-ylmethyl)isoquinoline] | 0.437 | 19 | – | – |
| Nc1ccc2c(ccn2Cc2ccc3cncc(-c4cc5ccccc5o4)c3c2)c1 [Example 192, 1-[[4-(Benzofuran-2-yl)-6-isoquinolyl]methyl]indol-5-amine] | 1.55 | 26 | – | – |
| NC1CCN(Cc2ccc3cncc(-c4ccc5cnccc5c4)c3c2)CC1 [Example 193] | 1.05 | 11.5 | – | – |
| NC1CCN(Cc2ccc3cncc(-c4ccc5ccncc5c4)c3c2)CC1 [Example 194] | 0.797 | 16.3 | – | – |
| NC1CCN(Cc2ccc3cncc(-c4ccc5ncccc5c4)c3c2)CC1 [Example 195] | 0.797 | 16.2 | – | – |
| NC1CCN(Cc2ccc3cncc(-c4ccc(Cl)cc4Cl)c3c2)CC1 [Example 197] | 1.39 | 9.86 | – | – |
| COc1cccc(-c2cncc3ccc(CN4CCC(N)CC4)cc23)c1 [Example 198] | 0.882 | 11.1 | – | – |
| COc1ccc(-c2cncc3ccc(CN4CCC(N)CC4)cc23)cn1 [Example 201] | 0.803 | 25.2 | – | – |
| COc1ccc(-c2cncc3ccc(CN4CCC(N)CC4)cc23)cc1OC [Example 202] | 1.27 | 19.4 | – | – |
| Cn1cc(-c2cncc3ccc(CN4CCC(N)CC4)cc23)cn1 [Example 203] | 0.624 | – | – | 48 |
| NC1CCN(Cc2ccc3cncc(-c4cn[nH]c4)c3c2)CC1 [Example 204] | 4.7 | – | – | 55 |
| N[C@@H]1CCN(Cc2ccc3cncc(-c4cc5ccccc5o4)c3c2)C[C@H]1F [Example 205] | 2.15 | 4.52 | – | – |
| NC1CCN(Cc2ccc3cncc(-c4cc5ccccc5o4)c3c2)c2ccccc21 (centres unmarked) [Example 207] | 0.606 | 8.04 | – | – |
| CN(c1ccc2cncc(-c3cc4ccccc4o3)c2c1)C1CCNCC1 [Example 211] | 0.425 | 5.57 | – | – |
| c1ccc2oc(-c3cncc4ccc(NC5CCCNC5)cc34)cc2c1 (centres unmarked) [Example 212] | 0.418 | 1.7 | – | – |
| c1ccc2oc(-c3cncc4ccc(NCC5CCCNC5)cc34)cc2c1 (centres unmarked) [Example 214] | 0.534 | 1.42 | – | – |
| Nc1ncc(-c2ccc(Cl)cc2)c2cc(CN3CCC(N)CC3)ccc12 [Example 215] | 0.473 | 3.3 | – | – |
| Nc1ncc(-c2cccc(Cl)c2)c2cc(CN3CCC(N)CC3)ccc12 [Example 216] | 1.11 | 2.52 | – | – |
| Nc1ncc(-c2ccc(Cl)c(Cl)c2)c2cc(CN3CCC(N)CC3)ccc12 [Example 217] | 3.01 | 3.06 | – | – |
| Nc1ncc(-c2cc(Cl)cc(Cl)c2)c2cc(CN3CCC(N)CC3)ccc12 [Example 218] | 5.72 | 2.47 | – | – |
| Nc1ncc(-c2ccc(F)cc2)c2cc(CN3CCC(N)CC3)ccc12 [Example 219] | 1.02 | 5.31 | – | – |
| Nc1ncc(-c2cccc(F)c2)c2cc(CN3CCC(N)CC3)ccc12 [Example 220] | 1.47 | 4.28 | – | – |
| Nc1ncc(-c2cc(F)cc(F)c2)c2cc(CN3CCC(N)CC3)ccc12 [Example 222] | 1.91 | 3.5 | – | – |
| Nc1ncc(-c2cc3ccccc3o2)c2cc(CN3CCNCC3)ccc12 [Example 223] | 1.14 | 3.94 | – | – |

The next lines start with results.

| IC50 [1] [µM] | IC50 [2] [µM] | inhibition at 1 µM ([1]; at 1 μM, read-out: Inhibition of MNK1 activity at indicated concentration) [%] | Structure (SMILES) | inhibition at 50 µM [2] [%] |
| --- | --- | --- | --- | --- |
| 0.125 | 3.65 | – | NC1CCN(Cc2ccc3cncc(-c4ccco4)c3c2)CC1 [Example 177, 1-[[4-(2-Furyl)-6-isoquinolyl]methyl]piperidin-4-amine] | – |
| 0.154 | 4.98 | – | NC1CCN(Cc2ccc3cncc(-c4cccs4)c3c2)CC1 [Example 178] | – |
| 0.276 | 4.97 | – | NC1CCN(Cc2ccc3cncc(-c4ccoc4)c3c2)CC1 [Example 179] | – |
| 0.177 | 12.1 | – | NC1CCN(Cc2ccc3cncc(-c4ccsc4)c3c2)CC1 [Example 180] | – |
| 0.306 | 8.64 | – | NCc1ccc(-c2cncc3ccc(CN4CCC(N)CC4)cc23)cc1 [Example 183] | – |
| 0.266 | 13 | – | NC1CCN(Cc2ccc3cncc(-c4cccc(O)c4)c3c2)CC1 [Example 187] | – |
| 0.34 | 5.63 | – | NC1CCN(Cc2ccc3cncc(-c4cc5cc(Cl)ccc5o4)c3c2)CC1 [Example 188] | – |
| 0.011 | 8.39 | – | c1ccc2oc(-c3cncc4ccc(Cn5ccc6cnccc65)cc34)cc2c1 [Example 189, 4-(Benzofuran-2-yl)-6-(pyrrolo[3,2-c]pyridin-1-ylmethyl)isoquinoline] | – |
| 0.087 | 7.44 | – | Nc1cc(CNc2ccc3cncc(-c4cc5ccccc5o4)c3c2)ccn1 [Example 190, N-[(2-Amino-4-pyridyl)methyl]-4-(benzofuran-2-yl)isoquinolin-6-amine] | – |
| 0.331 | 20.4 | – | NC1CCN(Cc2ccc3cncc(-c4ccc5cccnc5c4)c3c2)CC1 [Example 196] | – |
| 0.212 | 8.67 | – | NC1CCN(Cc2ccc3cncc(-c4ccc5c(c4)OCO5)c3c2)CC1 [Example 199] | – |
| 0.245 | 16.4 | – | NC1CCN(Cc2ccc3cncc(-c4ccc(Cl)c(Cl)c4)c3c2)CC1 [Example 200] | – |
| 0.017 | 8.06 | – | N[C@@H]1CCN(Cc2ccc3cncc(-c4cc5ccccc5o4)c3c2)C[C@@H]1F [Example 206] | – |
| 0.056 | 8.17 | – | c1coc(-c2cncc3ccc(CNc4ccnc5ccccc45)cc23)c1 [Example 208] | – |
| 0.056 | 7.5 | – | Cc1ccc(-c2cncc3ccc(CNc4ccnc5ccccc45)cc23)o1 [Example 209] | – |
| 0.022 | 1.76 | – | CN(c1ccc2cncc(-c3cc4ccccc4o3)c2c1)C1CCC(N)CC1 (centres unmarked) [Example 210] | – |
| 0.113 | 3.48 | – | c1ccc2oc(-c3cncc4ccc(NCC5CCNCC5)cc34)cc2c1 [Example 213] | – |
| 0.351 | 5.03 | – | Nc1ncc(-c2ccc(F)c(F)c2)c2cc(CN3CCC(N)CC3)ccc12 [Example 221] | – |
| 0.222 | 11.6 | – | c1ccc2oc(-c3cncc4ccc(CN5CCNCC5)cc34)cc2c1 [Example 224, 4-(Benzofuran-2-yl)-6-(piperazin-1-ylmethyl)isoquinoline] | – |
